Experimental data as given in PubChem BioAssay (NCI).
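Where inhibition never reached the appropriate level, the endpoint shown equals the highest concentration tested. Otherwise, values were interpolated linearly from a five-concentration, 48-hour dose response in 96-well plates. The concentration for full growth arrest is given as TGI.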

Assays:
Experiment in all cases: growth of human tumour cells (NCI), 48 h
[1] = tested on: KM20L2 colon
[2] = tested on: XF 498 CNS
[3] = tested on: DMS 114 small cell lung
[4] = tested on: DLD-1 colon
[5] = tested on: DMS 273 small cell lung
[6] = tested on: M19-MEL melanoma
[7] = tested on: SNB-78 CNS
[8] = tested on: MDA-N
[9] = tested on: RXF-631 renal

SMILES | TGI [1] [µM] | TGI [2] [µM] | TGI [3] [µM] | TGI [4] [µM] | TGI [5] [µM] | TGI [6] [µM] | TGI [7] [µM] | TGI [8] [µM] | TGI [9] [µM]
C#Cc1cccc(N2C(=O)c3c(c(-c4ccccc4)c(-c4ccc(Cc5ccc(-c6c(-c7ccccc7)c7c(c(-c8ccccc8)c6-c6ccccc6)C(=O)N(c6cccc(C#C)c6)C7=O)cc5)cc4)c(-c4ccccc4)c3-c3ccccc3)C2=O)c1 | > 100 | 72.7 | > 100 | > 100 | > 100 | 52 | > 100 |  | 
COc1cc(C2SCCCCCCCCCCSC(c3ccc(O)c(OC)c3)SCCCCCCCCCCS2)ccc1O (stereo unspecified) |  |  |  |  |  |  |  | > 100 | 
O=c1/c(=C/c2ccccc2[N+](=O)[O-])sc2nc3ccccc3n12 | > 100 | > 59.3 | 36.8 | 37.3 | > 46.4 | > 46.4 | > 46.4 |  | > 46.4
COc1ccc(NC(=O)CC2SC(=Nc3ccccc3C)NC2=O)c([N+](=O)[O-])c1 (stereo unspecified) | > 100 | > 100 |  | > 100 | > 100 | > 100 | > 100 |  | 
COc1ccc(OC)c(NC(=O)CCC/C(CC(=O)c2ccc(O)c(OC)c2)=N\Nc2nnc(C)n2N)c1 | > 100 | > 100 | > 100 | > 100 | > 100 | > 100 |  |  | 
C/C=C(/I)CBr | 88.5 | 27 | 28.4 | 29.2 |  | 28.6 | 93.9 |  | 36.2
COc1ccc(NC(=O)/C(=C/c2ccccc2)C(C)=O)cc1 | 29.2 | 30.6 | 30.7 | 28.7 | 30.8 | 29.9 | 44.8 |  | 31.2
CCNC(=O)COc1ccc(Br)cc1Br | > 100 |  | > 100 | > 100 | > 100 | > 100 | > 100 |  | > 100
CC(Oc1ccc2c(-c3ccccc3)cc(=O)oc2c1)C(=O)O (stereo unspecified) | > 100 | > 100 | > 100 | > 100 |  | > 100 | > 100 |  | 
